From patent US7632871B2, “Methods of making and methods of using antiseptic disinfectant, cosmetic and toiletries, medicine or food containing the same” (Mandom Corporation, priority 2002, dated 2009) come the findings set out here.

Type in all cases: cell-based
Test [1] concerns Staphylococcus aureus IF013276. Briefly: Dual minimum inhibitory concentration (agar dilution MIC) of 1,2-octanediol combined with a fragrance component, Staphylococcus aureus. The note with it: fragrance component combined with 1,2-octanediol (50:50 by weight mixture); agar medium, 35° C., growth judged after two days. As to the method:
(§1) Candida albicans IFO1594 (mycotic stomatitis), Staphylococcus aureus IF013276 (Staphylococcus aureus), and Pseudomonas aeruginosa IF013275 (Pseudomonas) are used as sample bacterias.
(§2) For preparing bacteria, as to Staphylococcus aureus and Pseudomonas, they are incubated at 35° C. in the agar medium, and further incubated at 35° C. after transferred into the bouillon medium. The inoculating bacteria is prepared by diluting the obtained culture solution to about 10^8 inoculating cell/ml.
(§3) With a dilution solvent of ethyl cellosolve of 20 w/w %, 1,2-octanediol solution of 5, 4, 3, 2.5, 2.25, 2, 1.75, 1.5, 1.25 and 1 w/v % are prepared.
(§4) While, as to thymol and the 50:50 by weight mixture of 1,2-octanediol and thymol, the dilution series are prepared by doubling diluting the 20w/v % solution.
(§5) 1 ml of each of the above-mentioned dilution series including the test material and 9 ml of the agar medium are introduced to each schales, and the above-mentioned inoculating bacteria was applied on each of the schales at the length of 1 cm.
(§6) Staphylococcus aureus and Pseudomonas were incubated at 35° C., and it was judged whether or not the bacteria had grown two days later. The yeast was incubated at 25° C., and it was judged whether or not the bacteria had grown three days later.
(§7) Each MIC of the obtained 1,2-octanediol, thymol, and the 50:50 mixture by weight of 1,2-octanediol and thymol corresponding the compounding amount of 1,2-octanediol and thymol is plotted to make out the dual minimum inhibitory concentration. Action and effect in case that two kinds of antibacterial materials are compounded can be judged by the dual minimum inhibitory concentration. More specifically, the actions caused by compounding two antibacterial materials are roughly classified into synergistic action, additive action and counteraction. Synergistic action is the action in that two kinds of agent act synergistically, to enhance the antibacterial activity that the agents originally have. The additive action is the action in that the antibacterial activities of the agents are put together. The counteraction is the action in that one agent cancels the antibacterial activity of the other agent.
(§8) The method using dual minimum inhibitory concentration, as shown in FIG. 1 for example, is the method to measure MICs as to material A and Material B at different proportions of them and to judge the result in view of the graph. In this method, a line is drawn to connect MIC (point A) in using only material A to MIC (point B) in using only material B. When the MIC (point C) in using both materials is inside the line, it is judged to be Synergistic action that antibacterial activity was strengthened by the combined use. When the MIC (point D) is on the line, it can be judged to be the additive action. When the MIC (point E) is in the outside of the line, it is judged to be the counteraction that cancels antibacterial activity of one or both of the materials to decrease the antibacterial activity.
(§9) The antibacterial effect in the case of mixing 1,2-octanediol and thymol was evaluated by the following evaluation criterion from dual minimum inhibitory concentration diagram in FIG. 2.

The subject of test [2] is Candida albicans IFO1594. Kind of test: Dual minimum inhibitory concentration (agar dilution MIC) of 1,2-octanediol combined with a fragrance component, Candida albicans. The note with it: fragrance component combined with 1,2-octanediol (50:50 by weight mixture); agar medium, 25° C., growth judged after three days. As to the method:
as §1
As to yeast (Candida albicans), the inoculating bacteria is prepared by incubating the yeast in the same way as Staphylococcus aureus and Pseudomonas at 30° C. and diluting the yeast to about 10^7 cell/ml.
as §3, §4, §5, §6, §7, §8, §9

For test [3], the system named is Pseudomonas aeruginosa IF013275. Kind of test: Dual minimum inhibitory concentration (agar dilution MIC) of 1,2-octanediol combined with a fragrance component, Pseudomonas aeruginosa. The note with it: fragrance component combined with 1,2-octanediol (50:50 by weight mixture); agar medium, 35° C., growth judged after two days. As to the method: as §1, §2, §3, §4, §5
Staphylococcus aureus and Pseudomonas were incubated at 35° C., and it was judged whether or not the bacteria had grown two days later. […]
as §9

The subject of test [4] is Escherichia coli IFO3972. Briefly: Dual minimum inhibitory concentration (agar dilution MIC) of 1,2-octanediol combined with a fragrance component, Escherichia coli. Further details: key: ◯: There is synergistic action in the antibacterial effect.; Δ: There is additive action in the antibacterial effect.; ×: There is counteraction in the antibacterial effect. The note with it: fragrance component combined with 1,2-octanediol (50:50 by weight mixture); same way as Embodiment 1, E. coli instead of P. aeruginosa. As to the method:
as §2, §3, §4
1 ml of each of the above-mentioned dilution series including the test material and 9 ml of the agar medium are introduced to each schales, and the above-mentioned inoculating bacteria was applied on each of the schales at the length of 1 cm. […]
as §9
Manipulating each of citronellol and β-pinene for fragrance component in the same way as in Embodiment 1 using Escherichia coli IFO3972 instead of Pseudomonas aeruginosa IF013275, each dual minimum inhibitory concentration of FIGS. 6-7 was obtained. […] From the obtained result, the antibacterial effect was evaluated by the above-mentioned evaluation criterion.

As for `CC(=O)O[C@@H]1C[C@H]2CC[C@]1(C)C2(C)C` (racemic) [isobornyl acetate, reference compound], the “antibacterial effect of mixing with 1,2-octanediol, judged from dual minimum inhibitory concentration diagram, S. aureus” value in test [1] was “∘”.

Consider `C=CCc1ccc(O)c(OC)c1` [Eugenol], for which the “antibacterial effect of mixing with 1,2-octanediol, judged from dual minimum inhibitory concentration diagram, C. albicans” value in test [2] is listed as “∘”. The “antibacterial effect of mixing with 1,2-octanediol, judged from dual minimum inhibitory concentration diagram, S. aureus” value in test [1] is “∘”. Besides, the “antibacterial effect of mixing with 1,2-octanediol, judged from dual minimum inhibitory concentration diagram, P. aeruginosa” value in test [3] was “∘”.

For `Cc1ccc(C(C)C)c(O)c1` [Thymol], in test [2], the “antibacterial effect of mixing with 1,2-octanediol, judged from dual minimum inhibitory concentration diagram, C. albicans” value is reported as “∘”. Besides, the “antibacterial effect of mixing with 1,2-octanediol, judged from dual minimum inhibitory concentration diagram, S. aureus” value in test [1] is on record as “∘”. The “antibacterial effect of mixing with 1,2-octanediol, judged from dual minimum inhibitory concentration diagram, P. aeruginosa” value in test [3] is recorded as “∘”.

Turning to `CC(C)=CCCC(C)CC=O` (stereo not drawn) [citronellal], the “antibacterial effect of mixing with 1,2-octanediol, judged from dual minimum inhibitory concentration diagram, C. albicans” value in test [2] is recorded as “∘”. In addition, the “antibacterial effect of mixing with 1,2-octanediol, judged from dual minimum inhibitory concentration diagram, S. aureus” value in test [1] is on record as “∘”.

Regarding `CC(C)=CCCC(C)CCO` (stereo not drawn) [citronellol], in test [2], the “antibacterial effect of mixing with 1,2-octanediol, judged from dual minimum inhibitory concentration diagram, C. albicans” value is given as “∘”. Also, the “antibacterial effect of mixing with 1,2-octanediol, judged from dual minimum inhibitory concentration diagram, S. aureus” value in test [1] is reported as “∘”. Also, the “antibacterial effect of mixing with 1,2-octanediol, judged from dual minimum inhibitory concentration diagram, E. coli” value in test [4] was “∘”.

In the case of `CC(=O)OC(C)(C)C1CC=C(C)CC1` (stereo not drawn) [terpinyl acetate], the “antibacterial effect of mixing with 1,2-octanediol, judged from dual minimum inhibitory concentration diagram, C. albicans” value in test [2] is given as “∘”. Further, the “antibacterial effect of mixing with 1,2-octanediol, judged from dual minimum inhibitory concentration diagram, S. aureus” value in test [1] is “∘”.

As for `C=C1CCC2CC1C2(C)C` (stereo not drawn) [β-pinene], in test [2], the “antibacterial effect of mixing with 1,2-octanediol, judged from dual minimum inhibitory concentration diagram, C. albicans” value is listed as “∘”. Moreover, the “antibacterial effect of mixing with 1,2-octanediol, judged from dual minimum inhibitory concentration diagram, S. aureus” value in test [1] was “∘”. Also, the “antibacterial effect of mixing with 1,2-octanediol, judged from dual minimum inhibitory concentration diagram, E. coli” value in test [4] is recorded as “Δ”.

On to guaiac acetate [reference compound], for which the “antibacterial effect of mixing with 1,2-octanediol, judged from dual minimum inhibitory concentration diagram, S. aureus” value in test [1] was “∘”.
